Type in all cases: cell-based
The subject of one assay is U251 glioblastoma cells. Nature of the assay: MTT antiproliferative assay on U251 cells. To be noted: Brain glioblastoma U251, MTT, 72 h, 1 × 10^−7 to 1 × 10^−4 Molar, OD 570 nm; three-parameter log-logistic fit. The source says: (§1) The purified peptides, named CTNsen1, CTNsen2, CTNsen3, CTNanc1, CTNanc2, and CTNanc3 from Naja senegalensis and Naja anchietae respectively, were subsequently tested for their antiproliferative effects on several glioblastoma cell lines (U87, U251, and T98G) as well as on primary human umbilical vein endothelial cells (HUVECs). A series of increasing concentrations (1 × 10^−⁷, 0.5 × 10^−6, 1 × 10^−⁶, 0.5 × 10^−5, 1 × 10^−⁵, 0.5 × 10^−4, and 1 × 10^−⁴ Molar) were used. The dose-response curves for each peptide are depicted in Figure 9, Figure 10, Figure 11 and Figure 12.
Figure 10 Antiproliferative activity of CTNsen1 (a), CTNsen2 (b), CTNsen3 (c), CTNanc1 (d), CTNanc2 (e), and CTNanc3 (f) from Naja senegalensis and Naja anchietae respectively. […] The OD was measured at 570 nm.
(§2) U87 and T98G were plated at a density of 4000 cells per well and U251 cells at a density of 2500 cells per well in microtiter plates and allowed to adhere overnight at 37 °C in a 5% CO2 humidified environment. The following day, the medium was replaced with fresh medium containing our venom peptides under investigation. After a 72-h incubation period, cells were treated with MTT (Promega, Lyon, France) at a concentration of 0.5 mg/mL. […] Viable cells were then quantified by measuring the absorbance at 570 nm. […] Model calibration was assessed using the drm() function. […]
For orientation: Formazan colour is commonly taken as a measure of viable cells.

Another assay relates to T98G glioblastoma cells. The assay can be described thus: MTT antiproliferative assay on T98G cells. To be noted: Brain glioblastoma T98G, 72 h, 1 × 10^−7 to 1 × 10^−4 Molar, OD 570 nm, three-parameter log-logistic fit.
Source text: as §1
Figure 11 Antiproliferative activity of CTNsen1 (a), CTNsen2 (b), CTNsen3 (c), CTNanc1 (d), CTNanc2 (e), and CTNanc3 (f) from Naja senegalensis and Naja anchietae, respectively. […] The OD was measured at 570 nm.
as §2

The next assay deals with MCF-7 cells. The assay can be described thus: MTT antiproliferative assay on MCF-7 cells (venom screening and isolated peptides). The settings on record: MCF7 cells, 72 h, 4 µg and 20 µg of peptide. Here is the method: We screened nearly 40 different animal venoms to evaluate their potential anticancer properties. The venoms were solubilized at a concentration of 1.5 mg/mL in water. The antiproliferative activity of these venoms was tested at two concentrations, 3 µg and 15 µg, against MCF-7 cells (Appendix A, Figure A1).
Figure A1 Antiproliferative activity of different animal venoms. […] The OD was measured at 570 nm after 72 h of treatment. The abbreviations include Na: Naja anchietae; Vg: Viridovipera gumprechti; Vk: Vipera kaznakovi; Tv: Trimeresurus vogeli; Tt: Trimeresurus trigonocephalus; Ach: Atheris chlorechis; Ath ni: Atheris nitschei nitschei; Nox: Naja oxiana; Np: Naja philippinensis; At sq: Atheris squamigera; Nhl: Naja haje legionis; Por Oph: Porthidium ophryomegas; Ph: Parias hageni; Ns: Naja senegalensis.
Figure A2 Antiproliferative activity of CTNsen1, CTNsen2, CTNsen3, CTNanc1, CTNanc2, and CTNanc3 from Naja senegalensis (b) and Naja anchietae (a), respectively. […] Na and Ns here were used as a positive control at two concentrations (3 µg and 15 µg). The OD was measured at 570 nm.

Bridges are numbered along the chain shown (N, C = ends). Where no end group is shown, it is not given here.

For “LKCHQLVPPFWKTCPEGKNLCYKMYMVSSSTVPVKRGCIDVCPKNSALVKYVCCNTDKCN (disulfide 3-21, 14-38, 42-53, 54-59) [CTNsen1]”, the “IC50 (μg/mL), U251” value with U251 glioblastoma cells is reported as “Inactive”. Further, the “IC50 (μg/mL), T98G” value in the assay with T98G glioblastoma cells is recorded as “Inactive”. Moreover, in the assay with MCF-7 cells, the “Antiproliferative activity of isolated peptides” value is recorded as “activity was confirmed”.

Values taken from article PMC11511367, “Antiproliferative Effects of Naja anchietae and Naja senegalensis Venom Peptides on Glioblastoma Cell Lines” (Toxins, 2024).
